Experimental data taken from publication PMC5652740, “Inhibition of HIV-1 infection in humanized mice and metabolic stability of protein phosphatase-1-targeting small molecule 1E7-03” (Oncotarget, 2017).

Key:
HIV-1 89.6 = test: Antiviral efficacy in HIV-1 89.6-infected humanized NSG mice; type: in vivo; details: 48 hrs
Description: NOD.Cg-Prkdcscid Il2rgtm1Wjl/SzJ (NSG) mice initially purchased from Jackson Laboratories were bred and maintained in the Animal Core Facility at George Mason University (Manassas, VA). NSG mice were generated by i.p. injection of cryopreserved human CD34+ hematopoietic stem progenitor cells (HSPC) (500,000 cells per mouse) isolated from the autologous fetal liver. Anesthetized mice were inoculated by direct injection 16 weeks after implantation with 50 μl of HIV-1 89.6 (1,000 TCID50) or RPMI 1640 medium (mock infection). […] Blood was collected by tail vein after 48 hrs and transferred into microcentrifuge tubes containing 330 mM EDTA. Each data point represents the blood from a single animal. Plasma was removed after low-speed centrifugation for 5 min at room temperature and stored at -80°C. Viral RNA was extracted from plasma using the QIAamp Viral RNA Mini Kit (Qiagen). For quantitative analysis of HIV-1 RNA, total RNA was isolated from blood specimens of HIV-1-infected humanized mice. RNA was isolated using Trizol Reagent (Invitrogen, Carlsbad, CA) according to the manufacturer's protocol. A total of 1.0 μg of RNA was treated with 0.25 mg/ml DNase I RNase-free (Roche, Mannheim, Germany) for 60 min in the presence of 5 mM MgCl2, followed by heat inactivation at 65 °C for 15 min. A 200–250 ng aliquot of total RNA was used to generate cDNA with the GoScript Reverse Transcription System (Promega, Madison, WI) using TAR-specific reverse primer TAR+59R: 5′- […] -3′. Subsequent quantitative real-time PCR analysis was performed with 2 μl of undiluted RT reaction mixes. The iQ Supermix (Bio-Rad, Hercules, CA) was used with the primers specific for (1) HIV-1 TAR: TARfll-F: 5′-[…]-3′ and TAR+59R as above; (2) HIV-1 TAR-gag: Gag 1625R: 5’- […] -3’ and TAR+59R as above. Real-time PCR reactions were carried out in triplicate.

[1] = 1E7-03 degradation in guinea pig plasma; type: in vitro ADME; details: 10 μM, 37°C, 4 hrs
Description: 1E7-03 dissolved in DMSO (10 mM stock solution) was mixed with mouse plasma (Sigma-Aldrich), guinea pig plasma (Sigma-Aldrich), ferret plasma (BioreclamationIVT), monkey plasma (courtesy of Binhua Ling, PhD, Tulane University) and human plasma (collected from heathy volunteer by the Center for Sickle Cell Disease at Howard University) to the final concentration of 10 μM and incubated at 37°C. Aliquots were collected at different time points for up to 24 hrs. The resulting sample (60 μl) was mixed with 240 μl of cold acetone, vortexed for 2 min, kept at –20°C for 30 min, and then the precipitated protein was removed by centrifugation at 13,000 × g for 5 min. The supernatant was transferred to a clean test tube and evaporated to dryness using a SpeedVac concentrator. The residue reconstituted in 60 μl of acetonitrile for LC/FT-MS analysis. All experiments were run parallel in triplicates.

[2] = test system: PP1 regulatory subunit Sds22; test: Label free quantitative proteomics of HIV-1 infected CEM T cells; type: cell-based; details: 10 μM, SIEVE quantification
Description: CEM T cells were infected with VSVG-pseudotyped pNL4-3.Luc.R-E-virus (HIV-1-LUC-G) and cultured in 100 mm culture plates (1.25 × 10^6 cells/ml) containing 10 ml of supplemented RPMI media at 37°C and 5% CO2. The cells were treated with 10 μM of 1E7-03 or vehicle (DMSO) and incubated overnight. Cells were collected and washed three times with PBS. To obtain cell lysates, the cells were suspended in 1 ml cold whole cell lysis buffer (50 mM Tris-HCl, pH 7.5, 0.5 M NaCl, 1% NP-40, 0.1% SDS) with protease and phosphatase inhibitors (P044-1ML, Sigma Aldrich). The cytosolic protein fraction was isolated by centrifugation at 13,000xg for 30 min at 4 °C to remove cellular debris. […]
Tryptic peptides were purified by Pierce™ Graphite Spin Columns following manufacturer's instructions, resuspended in water with 0.1% formic acid (v/v) and analyzed by an LTQ Orbitrap XL mass spectrometer (Thermo Fisher Scientific) coupled to a Prominence Nano LC (Shimadzu) using the Xcalibur version 2.7.0 (Thermo Scientific). […]
LC-MS/MS raw data were searched by Proteome Discoverer 1.4 using Sequest search engine (Thermo Fisher Scientific), against the Uniprot Human database (6/10/2016, 135431 sequences) at a false discovery cut off ≤1%. […] The label-free quantification of peptides eluting between 10 and 80 min was performed with SIEVE 2.1 software (Thermo Scientific). […]

SMILES	fold reduction of HIV TAR RNA (HIV-1 89.6; single i.p. dose 3 mg/kg, Figure 7G) [fold]	% of compound degraded [1]	Sds22 Ratio 1E7-03/Control [2]	α-tubulin Ratio 1E7-03/Control [2]	fold reduction of HIV TAR RNA (HIV-1 89.6; single i.p. dose, 1E7-03 3 mg/kg, F07#13 […], vs untreated mice, Figure 6A) [fold]	fold reduction of HIV TAR-gag RNA (HIV-1 89.6; single i.p. dose, 1E7-03 3 mg/kg, F07#13 […], vs untreated mice, Figure 6B) [fold]
COc1ccc(/C=C2\CCCc3c2nc2ccccc2c3C(=O)OC(C)C(=O)OC(C)(C)C)cc1OC (stereo not drawn) [DP1-07]	3.8					
CCNC(=O)NC(=O)C(C)OC(=O)c1c2c(nc3ccccc13)/C(=C/c1ccc(OC)c(OC)c1)CC2 (stereo not drawn) [1E7-03]		about 80%	0.804	0.936	> 40	> 39
